# Laboratory results: article PMC9946977, “Identification of linderalactone as a natural inhibitor of SHP2 to ameliorate CCl4-induced liver fibrosis” (Frontiers in Pharmacology, 2023)
# Experiments:
# [1] = test system: CCl4-induced liver fibrosis; experiment: CCl4-induced liver fibrosis mouse model: liver injury and fibrosis; type: in vivo, C57BL/6 mice; conditions: CCl4 mice
# Method: (§1) C57BL/6 mice (20 ± 2 g) were obtained from Hangzhou Medical College Experimental Animal Center (Hangzhou, China). The animals were maintained under controlled temperature (22°C ± 1°C), humidity (50%), and light (12 h light/12 h dark). The animals were fed a standard laboratory diet and provided with free access to tap water. All animals received humane care according to institutional animal care guidelines approved by the Experimental Animal Ethical Committee of Hangzhou Medical College. Forty mice were randomly divided into six groups: (1) vehicle control (n = 7); (2) CCl4 model (n = 7); (3) CCl4 + LIN (20 mg/kg) (n = 7); (4) CCl4 + LIN (40 mg/kg) (n = 7); (5) LIN (40 mg/kg) (n = 7); and (6) CCl4 + silymarin (SIL) (200 mg/kg) (n = 5). LIN and SIL were dissolved in 0.5% CMC-Na solution. Mice were administered LIN or SIL (intragastric administration, i.g.) once per day and CCl4 (intraperitoneal injection, i.p.; mixed 1:3 in olive oil, 2 mL/kg) twice per week for 4 weeks. Mice in the vehicle control group received olive oil (i.p. twice a week, 4 weeks) and 0.5% CMC-Na (i.g. every day, 4 weeks). After treatment, the mice were sacrificed, and plasma and liver tissues were collected and further analysed.
# Serum was collected from blood samples after centrifugation at 860 × g for 15 min. Serum ALT (Nanjing Jiancheng Bioengineering Institute, C010-2-1) and AST (Nanjing Jiancheng Bioengineering Institute, C009-2-1) activities were measured using kits, according to the manufacturer’s instructions. Liver hydroxyproline content was determined using the alkaline hydrolysis method, as described in the kits. Serum levels of laminin (LN) were measured using ELISA kits, according to the manufacturer’s instructions (Shanghai YANJIN Biological Technology Co., LTD, F12019).
# (§2) Total RNA was extracted from liver tissues and LX-2 cells using the TRIzol reagent. cDNA was synthesised using a PrimeScript RT Master Mix kit. Real-time PCR was performed using SYBR Green premix according to the manufacturer’s instructions. Relative expression of target genes was normalised to actin, analysed by the delta-delta-CT method and given as a ratio compared with the vehicle control. Primer sequences used in this study are listed in Supplementary Material.
# A sample of the liver was fixed in 10% phosphate-buffered saline (PBS)-formalin solution and embedded in paraffin. Samples were sectioned (5 μm) and stained with haematoxylin-eosin (H&E) for histological observation of liver injury and stained with Masson’s trichrome and Sirius red to observe collagen deposition in the liver.
# [2] = test system: HSCs activation (α-SMA, vimentin, desmin); experiment: CCl4 mouse model: HSC activation markers in liver; type: in vivo, C57BL/6 mice; conditions: CCl4 mice
# Method: as §1, §2
# The formalin-fixed and de-paraffinized liver sections (5 μm) were incubated with 5% bovine serum albumin to minimise non-specific binding, and then incubated with α-SMA antibody (Santa Cruz, SC-53142) in a humidified chamber overnight at 4°C. After washing thrice with PBS, the sections were incubated with FITC-conjugated secondary antibody (SH0058; Skyhobio) for 1 h. After washing thrice, the liver sections were incubated with DAPI for 10 min. Images were captured using an inverted microscope (IX81; Olympus, Japan).
# Paraffin-embedded liver sections were deparaffinized in xylene, rehydrated in a gradient of ethanol to distilled water, and then quenched by 3% hydrogen peroxide and then incubated with 5% bovine serum albumin, followed by incubation with vimentin antibody (ABclonal, A19607) at 4°C overnight, and further detected by using DAKO EnVision detection kits (Agilent Technologies Co., Ltd. K346811). The sections were counterstained with haematoxylin. Images were taken using an inverted microscope, and vimentin-positive cells were counted manually using Image-Pro Plus 6 in three random fields per sample (each group contained three samples).
# Liver proteins were isolated by using a lysis buffer containing 50 mM Tris-HCl (pH7.5), 150 mM NaCl, 1 mM EDTA, 20 mM NaF, 0.5% NP-40, 10% glycerol, 1 mM phenylmethylsulphonyl fluoride, 10 μg/mL aprotinin, 10 μg/mL leupeptin, and 10 μg/mL pepstatin. The supernatants were collected after centrifugation at 3,000 g for 10 min at 4°C, and the protein concentration of each sample was determined and normalised to the same protein concentration. Protein samples were separated by sodium dodecyl sulphate-polyacrylamide gel electrophoresis and transferred onto polyvinylidene fluoride membranes. The membranes were incubated with the indicated primary and secondary antibodies, and the proteins in the membranes were visualised using a chemiluminescence kit. TGF-® antibody (CST, 3711), Smad 2/3 antibody (CST, 8685), p-Smad 2/3 antibody (CST, 8828), anti-α-SMA antibody (Santa Cruz, SC-53142), vimentin antibody (ABclonal, A19607), desmin antibody (ABclonal, A3736), GAPDH antibody (Beyotime, AF0006), and SHP2 antibody (CST, 3397). […]
# [3] = LIN 20 and 40 mg/kg i.g. once per day, 4 weeks, p < 0.05
# [4] = LIN 20 and 40 mg/kg, dose-dependent
# [5] = LIN 20 mg/kg, Western blot, p < 0.05
compound,measurement,setting,value
"C/C1=C\CCC2=C[C@@H](OC2=O)c2c(C)coc2C1 [LIN, linderalactone]",hepatic Col1a1 mRNA level,[1]; LIN 20 mg/kg,significantly reversed
same,hepatic Col3a1 mRNA level,[1]; LIN 20 mg/kg,significantly reversed
same,"collagen deposition (Masson's trichrome, Sirius red)",[1]; LIN 40 mg/kg,mild collagen deposition in the liver without bridging fibrosis
same,serum ALT level,[1]; [3],significantly reduced
same,serum AST level,[1]; [3],significantly reduced
same,liver hydroxyproline level,[1]; [4],decreased
same,serum laminin level,[1]; [4],decreased
same,"CCl4-induced liver damage (H&E: immune cell infiltration, swelling, necrosis of hepatocytes)",[1]; LIN treatment,ameliorated
same,"extent of collagen deposition (Masson's trichrome, Sirius red)","[1]; LIN, dose-dependent",ameliorated
same,liver α-SMA accumulation (immunofluorescence staining),[2]; LIN,largely inhibited
same,protein expression of hepatic Des,[2]; [5],significant reduction
same,protein expression of hepatic Vim,[2]; [5],significant reduction
same,protein expression of hepatic α-SMA,[2]; [5],significant reduction
same,hepatic mRNA expression of Des,[2]; LIN 20 and 40 mg/kg,significantly reduced
same,hepatic mRNA expression of Vim,[2]; LIN 20 and 40 mg/kg,significantly reduced
same,hepatic mRNA expression of acta2,[2]; LIN 20 and 40 mg/kg,significantly reduced
